Experimental findings from US11771709B2, “ALK protein degradation agent and anti-tumor application thereof” (ShanghaiTech University, priority 2017, dated 2023) are described below.

The structures appear in SMILES notation.

Experiment [1] has as its target T1, ALK protein in H3122 (EML4-ALK) cells (Homo sapiens, UniProt Q9UM73).
T1 construct: EML4 (Echinoderm microtubule-associated protein-like 4, Q9HC35) fusion partner, variant 1; host or cells: NCI-H3122 lung adenocarcinoma cells; the other entry of the earlier key: EML4 (Q9HC35, Echinoderm microtubule-associated protein-like 4)
Description: Western blot of ALK protein level (degradation, DC50), ALK phosphorylation and downstream signaling in H3122 cells. Format: cell-based. The note with it: for DC50: ALK protein degradation in H3122 cells.

In the next experiment the test system is SR (NPM-ALK) cells. Description: Growth inhibition IC50 in ALCL SR cells (CCK8/WST, 72 hours). Conditions: SR cells, WST. Format: cell-based.
Where [2] appears, read: 72 h, Brigatinib-based PROTAD molecules (Table 3).

T1 sequence (Q9UM73 with tags, fused parts or gaps): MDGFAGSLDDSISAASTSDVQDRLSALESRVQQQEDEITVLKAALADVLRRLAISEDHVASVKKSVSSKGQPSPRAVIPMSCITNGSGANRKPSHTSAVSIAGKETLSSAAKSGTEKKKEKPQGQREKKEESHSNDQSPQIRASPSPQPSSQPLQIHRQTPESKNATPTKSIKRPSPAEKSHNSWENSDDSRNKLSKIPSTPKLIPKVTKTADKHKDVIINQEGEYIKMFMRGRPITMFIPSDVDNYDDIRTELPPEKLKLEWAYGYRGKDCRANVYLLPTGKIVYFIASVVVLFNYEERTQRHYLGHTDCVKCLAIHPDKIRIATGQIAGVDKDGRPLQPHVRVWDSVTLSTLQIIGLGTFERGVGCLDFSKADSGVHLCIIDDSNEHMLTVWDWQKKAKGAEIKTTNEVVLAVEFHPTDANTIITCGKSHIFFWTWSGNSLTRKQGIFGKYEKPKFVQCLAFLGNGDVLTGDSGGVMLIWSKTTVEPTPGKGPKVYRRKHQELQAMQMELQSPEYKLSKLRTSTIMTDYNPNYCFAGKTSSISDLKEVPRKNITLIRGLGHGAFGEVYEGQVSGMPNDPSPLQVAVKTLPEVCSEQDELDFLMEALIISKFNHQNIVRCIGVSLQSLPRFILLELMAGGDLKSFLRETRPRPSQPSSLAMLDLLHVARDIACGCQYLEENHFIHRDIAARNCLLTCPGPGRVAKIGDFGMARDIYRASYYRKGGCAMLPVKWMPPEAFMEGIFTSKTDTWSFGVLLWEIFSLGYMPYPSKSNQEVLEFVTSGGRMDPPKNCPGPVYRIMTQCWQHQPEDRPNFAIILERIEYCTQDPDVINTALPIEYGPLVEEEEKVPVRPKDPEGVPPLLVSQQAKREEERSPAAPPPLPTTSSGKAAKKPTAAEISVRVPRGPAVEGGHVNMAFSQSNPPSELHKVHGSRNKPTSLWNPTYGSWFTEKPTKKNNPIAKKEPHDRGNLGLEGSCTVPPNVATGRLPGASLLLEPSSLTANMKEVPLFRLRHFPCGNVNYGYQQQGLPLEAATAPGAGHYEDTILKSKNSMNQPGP
Description for SR (NPM-ALK) cells: SR (NPM-ALK) and NCI-H2228 (EML4-ALK, V3) cells were purchased from ATCC. […] All Cells were cultured in RPMI1640 medium with 10% FBS and Penicillin-Streptomycin in 37° C. incubator with 5% CO2.
Cells were seeded at specific density in 96 well plates one day before treatment. […] Viable cells were measured via CCK8 reagent and IC50s were calculated via Prism Graphad. Experiments were repeated at least three times.

`C[C@@H](Oc1cc(-c2cnn(C3CCN(C(=O)CCOCCOCCOCCOCCNc4cccc5c4C(=O)N(C4CCC(=O)NC4=O)C5=O)CC3)c2)cnc1N)c1c(Cl)ccc(F)c1Cl` (stereo partly drawn) [SIAIS151060, 4-((15-(4-(4-(6-amino-5-((R)-1-(2,6-dichloro-3-fluorophenyl)ethoxy)pyridin-3-yl)-1H-pyrazol-1-yl)piperidin-1-yl)-15-oxo-3,6,9,12-tetraoxapentadecyl)amino)-2-(2,6-dioxopiperidin-3-yl)isoindoline-1,3-dione]: the DC50 in experiment [1] lay in the range of 100 to 500 nM. The compound `C[C@@H](Oc1cc(-c2cnn(C3CCN(C(=O)CCCCNc4cccc5c4C(=O)N(C4CCC(=O)NC4=O)C5=O)CC3)c2)cnc1N)c1c(Cl)ccc(F)c1Cl` (stereo partly drawn) [SIAIS151082, 4-((5-(4-(4-(6-amino-5-((R)-1-(2,6-dichloro-3-fluorophenyl)ethoxy)pyridin-3-yl)-1H-pyrazol-1-yl)piperidin-1-yl)-5-oxopentyl)amino)-2-(2,6-dioxopiperidin-3-yl)isoindoline-1,3-dione] showed a DC50 in experiment [1] of 1 to 10 nM. Besides, in experiment [1] (H3122 cells, western blot), the “concentration at which ALK protein level was reduced” value was “about 50 nM”. Compound `C[C@@H](Oc1cc(-c2cnn(C3CCN(C(=O)CNc4cccc5c4C(=O)N(C4CCC(=O)NC4=O)C5=O)CC3)c2)cnc1N)c1c(Cl)ccc(F)c1Cl` (stereo partly drawn) [SIAIS151083, 4-((2-(4-(4-(6-amino-5-((R)-1-(2,6-dichloro-3-fluorophenyl)ethoxy)pyridin-3-yl)-1H-pyrazol-1-yl)piperidin-1-yl)-2-oxoethyl)amino)-2-(2,6-dioxopiperidin-3-yl)isoindoline-1,3-dione] displayed a DC50 in experiment [1] of 10 to 50 nM. Compound `COc1cc(N2CCC(NC(=O)CCOCCNc3cccc4c3C(=O)N(C3CCC(=O)NC3=O)C4=O)CC2)ccc1Nc1ncc(Cl)c(Nc2ccccc2P(C)(C)=O)n1` (centres unmarked) [SIAIS151113] came in with a DC50 in experiment [1] of 100 to 500 nM. The compound further returned a half-inhibitory concentration (IC50) with SR (NPM-ALK) cells (setting [2]) of 7.5 ± 5.2 nM.

In experiment [1], `COc1cc(N2CCC(NC(=O)CCOCCOCCNc3cccc4c3C(=O)N(C3CCC(=O)NC3=O)C4=O)CC2)ccc1Nc1ncc(Cl)c(Nc2ccccc2P(C)(C)=O)n1` (centres unmarked) [SIAIS151114, N-(1-(4-((5-chloro-4-((2-(dimethylphosphoryl)phenyl)amino)pyrimidin-2-yl)amino)-3-methoxyphenyl)piperidin-4-yl)-3-(2-(2-((2-(2,6-dioxopiperidin-3-yl)-1,3-dioxoisoindolin-4-yl)amino)ethoxy)ethoxy)propenamide] returned a DC50 of 100 to 500 nM. In addition, in the experiment on SR (NPM-ALK) cells (setting [2]), the IC50 worked out at 10.9 ± 7.5 nM. The compound `CCc1cc2c(cc1N1CCC(NC(=O)CCOCCOCCOCCOCCNc3cccc4c3C(=O)N(C3CCC(=O)NC3=O)C4=O)CC1)C(C)(C)c1[nH]c3cc(C#N)ccc3c1C2=O` (centres unmarked) [SIAIS219024, N-(1-(3-cyano-9-ethyl-6,6-dimethyl-11-oxo-6,11-dihydro-5H-benzo[b]carbazol-8-yl)piperidin-4-yl)-1-((2-(2,6-dioxopiperidin-3-yl)-1,3-dioxoisoindolin-4-yl)amino)-3,6,9,12-tetraoxapentadecan-15-amide] registered an IC50 in the experiment on SR (NPM-ALK) cells (Alectinib based ALK PROTAD compounds (Table 4)) of 73.1 nM. Regarding `COc1cc(N2CCC(N3CCN(C(=O)CCCCCCNc4cccc5c4CN(C4CCC(=O)NC4=O)C5=O)CC3)CC2)ccc1Nc1ncc(Cl)c(Nc2ccccc2P(C)(C)=O)n1` (centres unmarked) [SIAIS219124, 3-(4-((7-(4-(1-(4-((5-chloro-4-((2-(dimethylphosphoryl)phenyl)amino)pyrimidin-2-yl)amino)-3-methoxyphenyl)piperidin-4-yl)piperazin-1-yl)-7-oxoheptyl)amino)-1-oxoisoindolin-2-yl)piperidine-2,6-dione], half-maximal inhibition in the experiment on SR (NPM-ALK) cells (setting [2]) (IC50) required 2.47 ± 0.6 nM. `COc1cc(N2CCC(NC(=O)CCCNc3cccc4c3CN(C3CCC(=O)NC3=O)C4=O)CC2)ccc1Nc1ncc(Cl)c(Nc2ccccc2P(C)(C)=O)n1` (centres unmarked) [SIAIS219128, N-(1-(4-((5-chloro-4-((2-(dimethylphosphoryl)phenyl)amino)pyrimidin-2-yl)amino)-3-methoxyphenyl)piperidin-4-yl)-4-((2-(2,6-dioxopiperidin-3-yl)-1-oxoisoindolin-4-yl)amino)butanamide] showed an IC50 in the experiment on SR (NPM-ALK) cells (setting [2]) of 6.67 ± 1 nM. Against the preceding compound, the IC50 is about 2.7-fold higher. `COc1cc(N2CCC(NC(=O)CNc3cccc4c3CN(C3CCC(=O)NC3=O)C4=O)CC2)ccc1Nc1ncc(Cl)c(Nc2ccccc2P(C)(C)=O)n1` (centres unmarked) [SIAIS219151, N-(1-(4-((5-chloro-4-((2-(dimethylphosphoryl)phenyl)amino)pyrimidin-2-yl)amino)-3-methoxyphenyl)piperidin-4-yl)-2-((2-(2,6-dioxopiperidin-3-yl)-1-oxoisoindolin-4-yl)amino)acetamide]: in the experiment on SR (NPM-ALK) cells (setting [2]), it took 102 ± 4.8 nM to reach half-maximal inhibition (IC50). On the same count and under the same terms, the figure for `COc1cc(N2CCC(NC(=O)CCCCNc3cccc4c3CN(C3CCC(=O)NC3=O)C4=O)CC2)ccc1Nc1ncc(Cl)c(Nc2ccccc2P(C)(C)=O)n1` (centres unmarked) [SIAIS219152, N-(1-(4-((5-chloro-4-((2-(dimethylphosphoryl)phenyl)amino)pyrimidin-2-yl)amino)-3-methoxyphenyl)piperidin-4-yl)-5-((2-(2,6-dioxopiperidin-3-yl)-1-oxoisoindolin-4-yl)amino)pentanamide] is 3.78 ± 0.4 nM; for `COc1cc(N2CCC(NC(=O)CCCCCNc3cccc4c3CN(C3CCC(=O)NC3=O)C4=O)CC2)ccc1Nc1ncc(Cl)c(Nc2ccccc2P(C)(C)=O)n1` (centres unmarked) [SIAIS219153, N-(1-(4-((5-chloro-4-((2-(dimethylphosphoryl)phenyl)amino)pyrimidin-2-yl)amino)-3-methoxyphenyl)piperidin-4-yl)-6-((2-(2,6-dioxopiperidin-3-yl)-1-oxoisoindolin-4-yl)amino)hexanamide] it is 3.12 ± 0.2 nM. The same measure, in the same setting: the figure for `COc1cc(N2CCC(NC(=O)CCCCCCNc3cccc4c3CN(C3CCC(=O)NC3=O)C4=O)CC2)ccc1Nc1ncc(Cl)c(Nc2ccccc2P(C)(C)=O)n1` (centres unmarked) [SIAIS219154, N-(1-(4-((5-chloro-4-((2-(dimethylphosphoryl)phenyl)amino)pyrimidin-2-yl)amino)-3-methoxyphenyl)piperidin-4-yl)-7-((2-(2,6-dioxopiperidin-3-yl)-1-oxoisoindolin-4-yl)amino)heptanamide] is 3.8 ± 0.2 nM; for `COc1cc(N2CCC(N3CCN(C(=O)CCCNc4cccc5c4CN(C4CCC(=O)NC4=O)C5=O)CC3)CC2)ccc1Nc1ncc(Cl)c(Nc2ccccc2P(C)(C)=O)n1` (centres unmarked) [SIAIS219155, 3-(4-((4-(4-(1-(4-((5-chloro-4-((2-(dimethylphosphoryl)phenyl)amino)pyrimidin-2-yl)amino)-3-methoxyphenyl)piperidin-4-yl)piperazin-1-yl)-4-oxobutyl)amino)-1-oxoisoindolin-2-yl)piperidine-2,6-dione] it is 4.34 ± 0.4 nM; for `COc1cc(N2CCC(N3CCN(C(=O)CCCCNc4cccc5c4CN(C4CCC(=O)NC4=O)C5=O)CC3)CC2)ccc1Nc1ncc(Cl)c(Nc2ccccc2P(C)(C)=O)n1` (centres unmarked) [SIAIS219156, 3-(4-((5-(4-(1-(4-((5-chloro-4-((2-(dimethylphosphoryl)phenyl)amino)pyrimidin-2-yl)amino)-3-methoxyphenyl)piperidin-4-yl)piperazin-1-yl)-5-oxopentyl)amino)-1-oxoisoindolin-2-yl)piperidine-2,6-dione] it is 3.09 ± 0.2 nM.

On to `COc1cc(N2CCC(N3CCN(C(=O)CCCCCNc4cccc5c4CN(C4CCC(=O)NC4=O)C5=O)CC3)CC2)ccc1Nc1ncc(Cl)c(Nc2ccccc2P(C)(C)=O)n1` (centres unmarked) [SIAIS219157, 3-(4-((6-(4-(1-(4-((5-chloro-4-((2-(dimethylphosphoryl)phenyl)amino)pyrimidin-2-yl)amino)-3-methoxyphenyl)piperidin-4-yl)piperazin-1-yl)-6-oxohexyl)amino)-1-oxoisoindolin-2-yl)piperidine-2,6-dione], for which half-maximal inhibition in the experiment with SR (NPM-ALK) cells (setting [2]) (IC50) required 1.99 ± 0.2 nM.

As for `COc1cc(N2CCC(N3CCN(C(=O)CCc4cccc5c4C(=O)N(C4CCC(=O)NC4=O)C5=O)CC3)CC2)ccc1Nc1ncc(Cl)c(Nc2ccccc2P(C)(C)=O)n1` (centres unmarked) [SIAIS219158, 4-(3-(4-(1-(4-((5-chloro-4-((2-(dimethylphosphoryl)phenyl)amino)pyrimidin-2-yl)amino)-3-methoxyphenyl)piperidin-4-yl)piperazin-1-yl)-3-oxopropyl)-2-(2,6-dioxopiperidin-3-yl)isoindoline-1,3-dione], in the experiment with SR (NPM-ALK) cells (setting [2]), the IC50 came to 30.3 ± 3.8 nM.

As for `COc1cc(N2CCC(NC(=O)CCc3cccc4c3C(=O)N(C3CCC(=O)NC3=O)C4=O)CC2)ccc1Nc1ncc(Cl)c(Nc2ccccc2P(C)(C)=O)n1` (centres unmarked) [SIAIS219170, N-(1-(4-((5-chloro-4-((2-(dimethylphosphoryl)phenyl)amino)pyrimidin-2-yl)amino)-3-methoxyphenyl)piperidin-4-yl)-3-(2-(2,6-dioxopiperidin-3-yl)-1,3-dioxoisoindolin-4-yl)propanamide], the IC50 with SR (NPM-ALK) cells (setting [2]) is 10.8 ± 1.4 nM. Turning to `COc1cc(N2CCC(NCCCCNc3cccc4c3C(=O)N(C3CCC(=O)NC3=O)C4=O)CC2)ccc1Nc1ncc(Cl)c(Nc2ccccc2P(C)(C)=O)n1` (centres unmarked) [SIAIS220026, 4-((4-((1-(4-((5-chloro-4-((2-(dimethylphosphoryl)phenyl)amino)pyrimidin-2-yl)amino)-3-methoxyphenyl)piperidin-4-yl)amino)butyl)amino)-2-(2,6-dioxopiperidin-3-yl)isoindoline-1,3-dione], in the experiment with SR (NPM-ALK) cells (setting [2]), inhibition was half-maximal at 7.4 nM (IC50).

As to `COc1cc(N2CCC(N3CCN(CCNc4cccc5c4C(=O)N(C4CCC(=O)NC4=O)C5=O)CC3)CC2)ccc1Nc1ncc(Cl)c(Nc2ccccc2P(C)(C)=O)n1` (centres unmarked) [SIAIS220027, 4-((2-(4-(1-(4-((5-chloro-4-((2-(dimethylphosphoryl)phenyl)amino)pyrimidin-2-yl)amino)-3-methoxyphenyl)piperidin-4-yl)piperazin-1-yl)ethyl)amino)-2-(2,6-dioxopiperidin-3-yl)isoindoline-1,3-dione], 3.8 nM corresponded to half-maximal inhibition with SR (NPM-ALK) cells (setting [2]) (IC50). This IC50 is about 1.9-fold lower than that of the compound before.

In the case of `COc1cc(N2CCC(N(C)C(=O)CCCNc3cccc4c3C(=O)N(C3CCC(=O)NC3=O)C4=O)CC2)ccc1Nc1ncc(Cl)c(Nc2ccccc2P(C)(C)=O)n1` (centres unmarked) [SIAIS220030, N-(1-(4-((5-chloro-4-((2-(dimethylphosphoryl)phenyl)amino)pyrimidin-2-yl)amino)-3-methoxyphenyl)piperidin-4-yl)-4-((2-(2,6-dioxopiperidin-3-yl)-1,3-dioxoisoindolin-4-yl)amino)-N-methylbutanamide], half-maximal inhibition in the experiment with SR (NPM-ALK) cells (setting [2]) (IC50) was put at 5.8 nM.
